Test results taken from patent publication US8178506B2, “Oligomeric compounds and compositions for use in modulation of small non-coding RNAs” (Regulus Therapeutics Inc., priority 2003, dated 2012).
In the oligonucleotide strings, read from the 5' end, every base follows the letter of its sugar. An asterisk marks phosphorothioate; unmarked linkages are phosphodiester. Other units and linkages are bracketed, terminal groups are in braces. A string of capitals states the bases alone. e = 2'-O-(2-methoxyethyl) (MOE); [5mC] = 5-methylcytosine

Assays:
Glut4 = Glut4 mRNA expression in adipocytes (real-time PCR); type: cell-based, human; details: for Glut4 (mRNA expression): adipocytes, 250 nM oligomeric compound, day nine post-transfection, relative to control (1.0)
aP2 = aP2 mRNA expression in adipocytes (real-time PCR); type: cell-based, human; details: for AP2 (mRNA expression): adipocytes, 250 nM oligomeric compound, day nine post-transfection, relative to control (1.0); for aP2 mRNA: Table 75
HSL = HSL mRNA expression in adipocytes (real-time PCR); type: cell-based, human; details: for HSL (mRNA expression): adipocytes, 250 nM oligomeric compound, day nine post-transfection, relative to control (1.0)
HuVECs = assay: Endothelial tube formation assay in HuVECs; details: 75 nM oligomeric compound
PPARγ = PPARγ mRNA expression in adipocytes (real-time PCR); type: cell-based, human; details: for PPAR gamma (mRNA expression): adipocytes, 250 nM oligomeric compound, day nine post-transfection, relative to control (1.0); for PPAR gamma mRNA: differentiating adipocytes transfected with oligomeric compound; for PPAR-gamma mRNA: differentiating adipocytes day 10 post-induction, 24 hours after treatment
adipocytes = assay: Triglyceride accumulation assay in adipocytes; type: cell-based, human; details: for Triglycerides: differentiating adipocytes day 10 post-induction, 24 hours after treatment
[1] = adipocytes, 250 nM oligomeric compound, relative to control (1.0), Table 15
[2] = adipocytes, 250 nM oligomeric compound, relative to control (1.0), Table 16
[3] = differentiating adipocytes transfected with oligomeric compound, Table 75
[4] = differentiating adipocytes transfected with oligomeric compound
[5] = 50 nM, differentiating adipocytes day 10 post-induction, 24 hours after treatment
[6] = 100 nM, differentiating adipocytes day 10 post-induction, 24 hours after treatment
[7] = 200 nM, differentiating adipocytes day 10 post-induction, 24 hours after treatment
[8] = 300 nM, differentiating adipocytes day 10 post-induction, 24 hours after treatment
[9] = Table 20, adipocyte differentiation assay as in Example 13

327941 (antisense eA*eA*e[5mC]*e[5mC]*e[5mC]*eA*e[5mC]*e[5mC]*eG*eA*e[5mC]*eA*eG*e[5mC]*eA*eA*eT*eG*eA*eA*eT*eG*eT*eT) [compound 327941]
Glut4 (mRNA expression) (Glut4; Table 15): 2.07
Glut4 (mRNA expression) (Glut4; Table 16): 0.44
AP2 (mRNA expression) (aP2; Table 15): 1.78
AP2 (mRNA expression) (aP2; Table 16): 0.88
HSL (mRNA expression) (HSL; Table 15): 1.73
HSL (mRNA expression) (HSL; Table 16): 0.81
% Activity Relative to UTC (tube formation) (HuVECs; Table 58): 74.1%
PPAR gamma (mRNA expression) (PPARγ; Table 15): 0.80
PPAR gamma (mRNA expression) (PPARγ; Table 16): 0.86
TG (triglyceride accumulation) (adipocytes; [1]): 1.31
TG (triglyceride accumulation) (adipocytes; [2]): 0.42

327906 (antisense eT*e[5mC]*eA*eT*eA*eG*e[5mC]*e[5mC]*e[5mC]*eT*eG*eT*eA*e[5mC]*eA*eA*eT*eG*e[5mC]*eT*eG*e[5mC]*eT) [compound 327906]
GLUT4 mRNA (Glut4; [3]): 14 percentage of untreated control (UTC)
aP2 mRNA (aP2; [4]): 46 percentage of untreated control (UTC)
HSL mRNA (HSL; [3]): 37 percentage of untreated control (UTC)
% Activity Relative to UTC (tube formation) (HuVECs; Table 57): 69.0%
PPAR gamma mRNA (PPARγ; Table 75): 50 percentage of untreated control (UTC)
TG (triglyceride accumulation) (adipocytes; [3]): 25 percentage of untreated control (UTC)

327913 (antisense eA*eA*e[5mC]*e[5mC]*eG*eA*eT*eT*eT*e[5mC]*eA*eA*eA*eT*eG*eG*eT*eG*e[5mC]*eT*eA*eG) [compound 327913]
Glut4 (mRNA expression) (Glut4; Table 15): 0.84
AP2 (mRNA expression) (aP2; Table 15): 0.99
HSL (mRNA expression) (HSL; Table 15): 0.92
% Activity Relative to UTC (tube formation) (HuVECs; Table 57): 69.0%
PPAR gamma (mRNA expression) (PPARγ; Table 15): 0.72
TG (triglyceride accumulation) (adipocytes; [1]): 0.59

327922 (antisense eT*e[5mC]*eA*eG*eT*eT*eT*eT*eG*e[5mC]*eA*eT*eG*eG*eA*eT*eT*eT*eG*e[5mC]*eA*e[5mC]*eA) [compound 327922]
Glut4 (mRNA expression) (Glut4; Table 15): 1.75
Glut4 (mRNA expression) (Glut4; Table 16): 0.43
AP2 (mRNA expression) (aP2; Table 15): 0.99
AP2 (mRNA expression) (aP2; Table 16): 0.75
HSL (mRNA expression) (HSL; Table 15): 0.95
HSL (mRNA expression) (HSL; Table 16): 0.72
% Activity Relative to UTC (tube formation) (HuVECs; Table 57): 89.7%
PPAR gamma (mRNA expression) (PPARγ; Table 15): 1.37
PPAR gamma (mRNA expression) (PPARγ; Table 16): 0.80
TG (triglyceride accumulation) (adipocytes; [1]): 1.09
TG (triglyceride accumulation) (adipocytes; [2]): 0.43

327901 (antisense eT*eG*eA*eG*e[5mC]*eT*eA*e[5mC]*eA*eG*eT*eG*e[5mC]*eT*eT*e[5mC]*eA*eT*e[5mC]*eT*e[5mC]*eA) [compound 327901]
GLUT4 mRNA (Glut4; [5]): 74.2 % UTC
GLUT4 mRNA (Glut4; [6]): 49.7 % UTC
GLUT4 mRNA (Glut4; [7]): 32.8 % UTC
GLUT4 mRNA (Glut4; [8]): 17.4 % UTC
Glut4 (Glut4; [9]): 0.19
Glut4 (mRNA expression) (Glut4; Table 15): 0.19
Glut4 (mRNA expression) (Glut4; Table 16): 0.29
AP2 mRNA (aP2; [5]): 78.3 % UTC
AP2 mRNA (aP2; [6]): 64.6 % UTC
AP2 mRNA (aP2; [7]): 39.0 % UTC
AP2 mRNA (aP2; [8]): 22.4 % UTC
AP2 (aP2; [9]): 0.42
AP2 (mRNA expression) (aP2; Table 15): 0.42
AP2 (mRNA expression) (aP2; Table 16): 0.47
HSL mRNA (HSL; [5]): 89.5 % UTC
HSL mRNA (HSL; [6]): 73.5 % UTC
HSL mRNA (HSL; [7]): 40.2 % UTC
HSL mRNA (HSL; [8]): 11.9 % UTC
HSL (HSL; [9]): 0.33
HSL (mRNA expression) (HSL; Table 15): 0.33
HSL (mRNA expression) (HSL; Table 16): 0.47
% Activity Relative to UTC (tube formation) (HuVECs; Table 57): 48.3%
% Activity Relative to UTC (tube formation) (HuVECs; Table 59): 100.0%
PPAR-gamma mRNA (PPARγ; 50 nM): 74.6 % UTC
PPAR-gamma mRNA (PPARγ; 100 nM): 70.8 % UTC
PPAR-gamma mRNA (PPARγ; 200 nM): 51.8 % UTC
PPAR-gamma mRNA (PPARγ; 300 nM): 39.3 % UTC
PPAR gamma (PPARγ; [9]): 0.30
PPAR gamma (mRNA expression) (PPARγ; Table 15): 0.30
PPAR gamma (mRNA expression) (PPARγ; Table 16): 0.72
Triglycerides (adipocytes; 50 nM): 85.3 % UTC
Triglycerides (adipocytes; 100 nM): 68.9 % UTC
Triglycerides (adipocytes; 200 nM): 34.0 % UTC
Triglycerides (adipocytes; 300 nM): 23.0 % UTC
TG (adipocytes; [9]): 0.54
TG (triglyceride accumulation) (adipocytes; [1]): 0.54
TG (triglyceride accumulation) (adipocytes; [2]): 0.53

327880 (antisense eA*e[5mC]*eA*eA*eA*eT*eT*e[5mC]*eG*eG*eT*eT*e[5mC]*eT*eA*e[5mC]*eA*eG*eG*eG*eT*eA) [compound 327880]
Glut4 (mRNA expression) (Glut4; Table 15): 1.11
AP2 (mRNA expression) (aP2; Table 15): 0.97
HSL (mRNA expression) (HSL; Table 15): 0.80
% Activity Relative to UTC (tube formation) (HuVECs; Table 56): 57.1%
PPAR gamma (mRNA expression) (PPARγ; Table 15): 0.53
TG (triglyceride accumulation) (adipocytes; [1]): 0.52

327927 (antisense eT*eG*eT*eA*eA*eA*e[5mC]*e[5mC]*eA*eT*eG*eA*eT*eG*eT*eG*e[5mC]*eT*eG*e[5mC]*eT*eA) [compound 327927]
GLUT4 mRNA (Glut4; [4]): 120 percentage of untreated control (UTC)
AP2 mRNA (aP2; [4]): 114 percentage of untreated control (UTC)
HSL mRNA (HSL; [4]): 120 percentage of untreated control (UTC)
% Activity Relative to UTC (tube formation) (HuVECs; Table 58): 59.3%
PPAR gamma mRNA (PPARγ): 108 percentage of untreated control (UTC)
TG (triglyceride accumulation) (adipocytes; [4]): 125 percentage of untreated control (UTC)

327899 (antisense e[5mC]*eA*eG*eT*eG*eA*eA*eT*eT*e[5mC]*eT*eA*e[5mC]*e[5mC]*eA*eG*eT*eG*e[5mC]*e[5mC]*eA*eT*eA) [compound 327899]
GLUT4 mRNA (Glut4; [3]): 14 percentage of untreated control (UTC)
aP2 mRNA (aP2; [4]): 47 percentage of untreated control (UTC)
HSL mRNA (HSL; [3]): 27 percentage of untreated control (UTC)
% Activity Relative to UTC (tube formation) (HuVECs; Table 57): 34.5%
PPAR gamma mRNA (PPARγ; Table 75): 62 percentage of untreated control (UTC)
TG (triglyceride accumulation) (adipocytes; [3]): 25 percentage of untreated control (UTC)

327918 (antisense e[5mC]*eT*eA*eG*eT*eA*e[5mC]*eA*eT*e[5mC]*eA*eT*e[5mC]*eT*eA*eT*eA*e[5mC]*eT*eG*eT*eA) [compound 327918]
GLUT4 mRNA (Glut4; [3]): 66 percentage of untreated control (UTC)
aP2 mRNA (aP2; [4]): 91 percentage of untreated control (UTC)
HSL mRNA (HSL; [3]): 85 percentage of untreated control (UTC)
% Activity Relative to UTC (tube formation) (HuVECs; Table 57): 96.6%
PPAR gamma mRNA (PPARγ; Table 75): 74 percentage of untreated control (UTC)
TG (triglyceride accumulation) (adipocytes; [3]): 65 percentage of untreated control (UTC)

327889 (antisense eG*eT*eG*eG*eT*eA*eA*eT*e[5mC]*e[5mC]*e[5mC]*eT*eG*eG*e[5mC]*eA*eA*eT*eG*eT*eG*eA*eT) [compound 327889]
Glut4 (mRNA expression) (Glut4; Table 15): 0.55
Glut4 (mRNA expression) (Glut4; Table 16): 0.46
AP2 (mRNA expression) (aP2; Table 15): 0.69
AP2 (mRNA expression) (aP2; Table 16): 0.57
HSL (mRNA expression) (HSL; Table 15): 0.59
HSL (mRNA expression) (HSL; Table 16): 0.54
% Activity Relative to UTC (tube formation) (HuVECs; Table 56): 50.0%
PPAR gamma (mRNA expression) (PPARγ; Table 15): 0.71
PPAR gamma (mRNA expression) (PPARγ; Table 16): 0.82
TG (triglyceride accumulation) (adipocytes; [1]): 0.47
TG (triglyceride accumulation) (adipocytes; [2]): 0.46

327921 (antisense e[5mC]*eT*eT*e[5mC]*e[5mC]*eA*eG*eT*e[5mC]*eG*eG*eG*eG*eA*eT*eG*eT*eT*eT*eA*e[5mC]*eA) [compound 327921]
GLUT4 mRNA (Glut4; [3]): 36 percentage of untreated control (UTC)
aP2 mRNA (aP2; [4]): 76 percentage of untreated control (UTC)
HSL mRNA (HSL; [3]): 76 percentage of untreated control (UTC)
% Activity Relative to UTC (tube formation) (HuVECs; Table 57): 96.6%
PPAR gamma mRNA (PPARγ; Table 75): 75 percentage of untreated control (UTC)
TG (triglyceride accumulation) (adipocytes; [3]): 56 percentage of untreated control (UTC)

327890 (antisense eA*eG*e[5mC]*eA*e[5mC]*eA*eA*eA*e[5mC]*eT*eA*e[5mC]*eT*eA*e[5mC]*e[5mC]*eT*e[5mC]*eA) [compound 327890]
Glut4 (mRNA expression) (Glut4; Table 15): 1.10
Glut4 (mRNA expression) (Glut4; Table 16): 0.67
AP2 (mRNA expression) (aP2; Table 15): 0.91
AP2 (mRNA expression) (aP2; Table 16): 0.69
HSL (mRNA expression) (HSL; Table 15): 0.86
HSL (mRNA expression) (HSL; Table 16): 0.67
% Activity Relative to UTC (tube formation) (HuVECs; Table 56): 92.9%
PPAR gamma (mRNA expression) (PPARγ; Table 15): 1.18
PPAR gamma (mRNA expression) (PPARγ; Table 16): 0.94
TG (triglyceride accumulation) (adipocytes; [1]): 0.92
TG (triglyceride accumulation) (adipocytes; [2]): 0.61
